Experiments:
Conditions in all cases: treatment: drug + dasatinib (fixed dose, not stated); 5 days
769-P [1] = assay: GI50 of drug in presence of dasatinib; higher = less potent
Method: (§1)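 Primary HTS combination arm: 8 RCC cell lines treated with 8 doses (up to 10 uM) of each library drug plus a fixed dose of dasatinib (dose not stated) for 5 days; viability read by CellTiter-Glo and normalised to DMSO. GI50 was fitted with XLfit, AUC is the area under the dose-response curve, and minimum viability is the lowest fraction of DMSO viability across doses.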

786-O [2] = assay: as above
Method: as §1

A498 [3] = assay: as above
Method: as §1

ACHN [4] = assay: as above
Method: as §1

CAKI-1 [5] = assay: as above
Method: as §1

SN12C [6] = assay: as above
Method: as §1

TK-10 [7] = assay: as above
Method: as §1

UO-31 [8] = assay: as above
Method: as §1

769-P [9] = assay: minimum viability across doses, drug + dasatinib, relative to DMSO (fraction); higher = less growth inhibition
Method: as §1

786-O [10] = assay: as above
Method: as §1

A498 [11] = assay: as above
Method: as §1

ACHN [12] = assay: as above
Method: as §1

CAKI-1 [13] = assay: as above
Method: as §1

SN12C [14] = assay: as above
Method: as §1

TK-10 [15] = assay: as above
Method: as §1

UO-31 [16] = assay: as above
Method: as §1

769-P [17] = assay: AUC of dose-response viability curve, drug + dasatinib, normalised to DMSO (arbitrary (AUC of normalised viability)); higher = less growth inhibition
Method: as §1

786-O [18] = assay: as above
Method: as §1

A498 [19] = assay: as above
Method: as §1

ACHN [20] = assay: as above
Method: as §1

CAKI-1 [21] = assay: as above
Method: as §1

SN12C [22] = assay: as above
Method: as §1

TK-10 [23] = assay: as above
Method: as §1

UO-31 [24] = assay: as above
Method: as §1

SMILES	GI50 of drug (769-P [1]) [µM]	GI50 of drug (786-O [2]) [µM]	GI50 of drug (A498 [3]) [µM]	GI50 of drug (ACHN [4]) [µM]	GI50 of drug (CAKI-1 [5]) [µM]	GI50 of drug (SN12C [6]) [µM]	GI50 of drug (TK-10 [7]) [µM]	GI50 of drug (UO-31 [8]) [µM]	minimum viability across doses (769-P [9])	minimum viability across doses (786-O [10])	minimum viability across doses (A498 [11])	minimum viability across doses (ACHN [12])	minimum viability across doses (CAKI-1 [13])	minimum viability across doses (SN12C [14])	minimum viability across doses (TK-10 [15])	minimum viability across doses (UO-31 [16])	AUC of dose-response viability curve (769-P [17])	AUC of dose-response viability curve (786-O [18])	AUC of dose-response viability curve (A498 [19])	AUC of dose-response viability curve (ACHN [20])	AUC of dose-response viability curve (CAKI-1 [21])	AUC of dose-response viability curve (SN12C [22])	AUC of dose-response viability curve (TK-10 [23])	AUC of dose-response viability curve (UO-31 [24])
O=c1cc(N2CCOCC2)oc2c(-c3cccc4c3sc3ccccc34)cccc12 + Cc1nc(Nc2ncc(C(=O)Nc3c(C)cccc3Cl)s2)cc(N2CCN(CCO)CC2)n1 [dasatinib]	3.09	0.763	8.33	1.8	0.847	> 10	4.63	2.85	0.225	0.0139	0.442	0.139	0.112	0.401	0.289	0.0435	2.36	1.89	3.4	2.09	1.96	2.38	2.52	3.36
Cc1csc(-c2nnc(Nc3ccc(Oc4ncccc4-c4ccnc(N)n4)cc3)c3ccccc23)c1 [AMG 900] + Cc1nc(Nc2ncc(C(=O)Nc3c(C)cccc3Cl)s2)cc(N2CCN(CCO)CC2)n1 [dasatinib]	0.0361	0.0072	> 10	0.00854	0.0154	0.383	6.46	> 10	0.211	0.117	0.562	0.186	0.286	0.319	0.459	0.604	1.44	0.863	3.08	1.25	1.32	1.93	2.2	4.1
CCOC(=O)C1=C(N)Oc2ccc(Br)cc2[C@H]1[C@H](C#N)C(=O)OCC [HA14-1] + Cc1nc(Nc2ncc(C(=O)Nc3c(C)cccc3Cl)s2)cc(N2CCN(CCO)CC2)n1 [dasatinib]	> 10	> 10	> 10	> 10	> 10	> 10	> 10	> 10	0.737	0.624	0.797	0.579	0.628	0.69	0.725	0.952	2.77	2.65	3.14	2.17	2.35	2.54	2.71	3.92
c1ccc2c(CCNc3ccc(Nc4ccncc4)cc3)c[nH]c2c1 + Cc1nc(Nc2ncc(C(=O)Nc3c(C)cccc3Cl)s2)cc(N2CCN(CCO)CC2)n1 [dasatinib]	0.28	> 10	0.748	0.0695	0.143	0.672	0.531	0.372	0.0334	0.00475	0.0451	0.00193	0.0392	0.00337	0.00918	0.0188	1.69	1.39	2.32	1.1	1.49	1.86	1.83	2.3
CNC(=O)c1ccccc1Nc1nc(Nc2ccc(N3CCOCC3)cc2OC)ncc1Cl [NVP-TAE226] + Cc1nc(Nc2ncc(C(=O)Nc3c(C)cccc3Cl)s2)cc(N2CCN(CCO)CC2)n1 [dasatinib]	0.75	0.0267	5.88	0.0274	0.107	0.335	0.202	0.334	0.085	0.00641	0.201	0.0673	0.0135	0.132	0.0355	0.00626	1.98	1.1	3.26	1.19	1.34	1.91	1.64	2.35
CCCCOc1c(C(=O)c2c(F)cc(C)cc2F)cnc2[nH]ncc12 + Cc1nc(Nc2ncc(C(=O)Nc3c(C)cccc3Cl)s2)cc(N2CCN(CCO)CC2)n1 [dasatinib]	> 10	0.0252	> 10	0.015	2.58	> 10	0.322	2.65	0.52	0.0144	0.795	0.135	0.378	0.565	0.377	0.182	2.26	1.09	3.45	1.18	1.94	2.47	1.89	3.38
Oc1ccc(-c2nc(-c3ccc(F)cc3)c(-c3ccncc3)[nH]2)cc1 + Cc1nc(Nc2ncc(C(=O)Nc3c(C)cccc3Cl)s2)cc(N2CCN(CCO)CC2)n1 [dasatinib]	> 10	> 10	> 10	0.449	> 10	> 10	> 10	> 10	0.56	0.609	0.909	0.279	0.555	0.652	0.634	0.768	2.27	2.57	3.53	1.74	2.52	2.45	2.53	3.66
O=C(O)[C@]1(Cc2cccc(Nc3nccs3)n2)CC[C@@H](Oc2cccc(Cl)c2F)CC1 [MK-5108 (VX-689)] + Cc1nc(Nc2ncc(C(=O)Nc3c(C)cccc3Cl)s2)cc(N2CCN(CCO)CC2)n1 [dasatinib]	1.36	0.105	1.99	0.0401	0.355	0.944	1.48	4.08	0.202	0.00534	0.339	0.227	0.216	0.174	0.372	0.37	2.18	1.07	2.89	1.51	1.86	1.96	2.14	3.91
Cc1nc(NC(=O)N2CCC[C@H]2C(N)=O)sc1-c1csc(C(C)(C)C)n1 [A66] + Cc1nc(Nc2ncc(C(=O)Nc3c(C)cccc3Cl)s2)cc(N2CCN(CCO)CC2)n1 [dasatinib]	> 10	0.323	> 10	1.13	> 10	> 10	> 10	> 10	0.548	0.352	0.784	0.429	0.539	0.527	0.561	0.761	2.43	1.88	3.64	2.1	2.31	2.33	2.49	3.38
CNC(=O)c1ccccc1Sc1ccc2c(/C=C/c3ccccn3)n[nH]c2c1 [Axitinib] + Cc1nc(Nc2ncc(C(=O)Nc3c(C)cccc3Cl)s2)cc(N2CCN(CCO)CC2)n1 [dasatinib]	1.4	> 10	7.69	2.98	0.439	0.622	> 10	7.85	0.159	0.635	0.457	0.271	0.162	0.262	0.715	0.392	2.02	2.8	3.26	2.14	1.8	2.08	2.91	3.37
O=C(O)c1ccc2c(c1)nc(Nc1cccc(Cl)c1)c1ccncc12 [cx-4945 (Silmitasertib)] + Cc1nc(Nc2ncc(C(=O)Nc3c(C)cccc3Cl)s2)cc(N2CCN(CCO)CC2)n1 [dasatinib]	> 10	< 0.003	> 10	3.24	1.27	> 10	> 10	> 10	0.595	0.313	0.47	0.169	0.033	0.642	0.645	0.865	2.44	1.99	2.87	2.01	2.12	2.52	2.54	4.08
Cc1cc(CN2CCN(c3c(Br)cnc4[nH]c(-c5ccc(N6CCN(C)CC6)cc5)nc34)CC2)no1 + Cc1nc(Nc2ncc(C(=O)Nc3c(C)cccc3Cl)s2)cc(N2CCN(CCO)CC2)n1 [dasatinib]	0.504	0.232	2.01	0.141	0.231	0.626	1.82	2.45	0.019	0.00361	0.0164	0.0106	0.00433	0.00484	0.198	0.0168	1.76	1.52	3.1	1.5	1.57	1.78	2.24	3.64
Cc1ccccc1-n1c(Cn2ncc3c(N)ncnc32)nc2cccc(C)c2c1=O [PIK-293] + Cc1nc(Nc2ncc(C(=O)Nc3c(C)cccc3Cl)s2)cc(N2CCN(CCO)CC2)n1 [dasatinib]	> 10	> 10	> 10	2.54	> 10	> 10	> 10	> 10	0.685	0.6	0.782	0.539	0.655	0.666	0.66	1.15	2.55	2.24	3.17	2.17	2.38	2.43	2.47	4.4
CCC[C@H](NC(=O)/C(C#N)=C/c1cccc(Br)n1)c1ccccc1 [WP1130] + Cc1nc(Nc2ncc(C(=O)Nc3c(C)cccc3Cl)s2)cc(N2CCN(CCO)CC2)n1 [dasatinib]	3.1	0.279	4.1	4.37	2.19	3.93	4.75	4.24	0.0169	0.00681	0.02	0.00233	0.0305	0.00838	0.191	0.0123	2.25	1.79	2.69	1.95	2.12	2.37	2.43	3.53

— the supplement of paper PMC8149375
